Data set [1] can be described thus: In vitro stability in human serum (HPLC). The class given is in vitro ADME. The note with it: 37 °C, 1, 2 and 3 h. The method, then:
Next, the in vitro stability of [^18F]1 was examined by incubating the labeled compound with human serum for up to 3 h at 37 °C, followed by HPLC analysis of the samples using gradient elution conditions.
The stability of [^18F]1 in human serum (Innovative Research Inc., Novi, MI, USA) was analyzed by HPLC using a Chromolith® Performance RP-18e column (4.6 × 100 mm, Millipore Sigma, Burlington, MA, USA), eluted with gradient mixtures of sodium acetate buffer (0.05 M, pH 5.5) and ethanol. The percentage of ethanol was kept at 5% for the first 5 min at a flow rate of 0.5 mL and then increased to 90% over 15 min at a flow rate of 1 mL/min. The stability studies were initiated by incubating human serum (0.5 mL) with [^18F]1 (6.66 MBq in 20 µL ethanol) at 37 °C. Samples (100 µL) were analyzed by HPLC after 0, 1, 2, and 3 h incubation. At each time point, the serum sample was spiked with the nonradioactive 1 (10 µg) before HPLC analysis for identity confirmation of the parent peak ([^18F]1).

Data set [2] has as its system MCF-7 cells. Nature of the data set: Saturation binding assay with [^18F]1 on MCF-7 cells. More on the design: species or system human. The note with it: 30 min incubation, nonspecific binding from cells pretreated with 1 µM SP-141 for 25 h, read-out: Kd (equilibrium dissociation constant). The procedure: Next, saturation binding assays were conducted to evaluate the binding affinity of [^18F]1 on MCF-7 cells. In these experiments, MCF-7 cells seeded in 24-well plates were incubated for 30 min with eight increasing concentrations of [^18F]1 in serial two-fold dilutions (185.5–1.4 nM). Nonspecific binding was assessed in parallel using cells that were pretreated with 1 µM SP-141 for about 25 h to induce MDM2 degradation, thereby depleting MDM2 from the cells. Uptake of [^18F]1 in SP-141-pretreated cells was considered nonspecific and was subtracted from the total binding data for untreated cells at each radiotracer concentration to calculate the equilibrium dissociation constant (Kd) by nonlinear regression analysis in Graphpad Prism®.
For the saturation binding assay with [^18F]1, MCF-7 cells plated in 24-well plates (200,000 cells/well) were treated for 25 h with vehicle (DMSO, <5%; plate #1, for total binding) or SP-141 (1 µM; plate #2, to determine nonspecific binding). […] At each concentration of [^18F]1, nonspecific binding was determined in parallel (plate #2) in cells treated with 1 µM SP-141 to induce MDM2 degradation. Specific binding data were calculated by subtracting nonspecific binding from total binding and fit using the equation “Specific binding with Hill slope” in GraphPad Prism® (GraphPad, v5.01). […]

The subject of data set [3] is MCF-7 cells. The experiment in a line: Cell uptake of [^18F]1 in MCF-7 cells after 21 h pretreatment. It counts as cell-based, human. The note with it: 1 h uptake. The procedure:
(§1) The ability of [^18F]1 to bind to MDM2 expressing human tumor cells was assessed using two wild-type p53 cell lines, MCF-7 breast adenocarcinoma, and HepG2 hepatocellular carcinoma. These cell lines have significant MDM2 expression levels and have been utilized previously for assessing potential MDM2 inhibitors, including SP-141 [12, 24, 25]. […] Thus, to examine the uptake and specificity of [^18F]1 by MDM2 expressing tumor cell lines, MCF-7 and HepG2 cells were treated with 0, 1, 5, or 10 µM SP-141 for 21 h, and then assessed for [^18F]1 uptake for 1 h.
(§2) Cell uptake studies of [^18F]1 were conducted using MCF-7 and HepG2 cell lines. Briefly, cells plated in 24-well plates (200,000/well) were treated with varying concentrations of SP-141 (1, 5, or 10 µM) or vehicle for 21 h and incubated with a fresh medium containing [^18F]1 (~18.5 kBq in 0.5 mL medium) for 1 h. Next, the incubation medium was removed, cells were rinsed with cold PBS (3 × 0.5 mL) and lysed using Cell Culture Lysis Reagent (0.25 mL, Promega Corporation, Madison, WI, USA) followed by a rinse with PBS (0.125 mL/well). For each well, the supernatant, PBS washes, and the cell lysate were measured for radioactivity in an automated gamma counter (Wallac Wizard™, Perkin Elmer, Waltham, MA, USA). Subsequently, cell lysates were analyzed for protein concentration using the Bradford assay (Bio-Rad, Hercules, CA, USA). Cell uptake for each well was normalized to its protein content and expressed as % uptake/mg protein. Results are presented as mean ± SD for three wells.

Data set [4] is described as follows: Lipophilicity, shake-flask partitioning between PBS (pH 7.4) and n-octanol. The class given is physicochemical. The note with it: PBS (pH 7.4) / n-octanol, read-out: log D7.4. The method, then:
The lipophilicity of [^18F]1 was determined by its partitioning between PBS (pH 7.4) and n-octanol by the shake-flask method as previously described.
An aliquot of [^18F]1 (0.37 MBq) was added to a mixture of PBS (pH 7.4) and n-octanol (2 mL each, n = 3) in polypropylene tubes. The mixture was vortexed for one minute, and the organic phase was separated by centrifugation (3000 rpm, 5 min). Next, aliquots of octanol (50 µL) and PBS (500 µL) were collected from each tube into preweighed Eppendorf® tubes and measured for radioactivity in an automated gamma counter (Wallac Wizard™, Perkin Elmer, Waltham, MA, USA). Samples were weighed, and the weights were converted to volume according to solvent density. The partition coefficient value was calculated as the ratio of radioactivity (counts per minute (CPM)/mL) in octanol to that in the aqueous phase.

The next data set relates to HepG2 cells. Nature of the data set: Cell uptake of [^18F]1 in HepG2 cells after 21 h pretreatment. The class given is cell-based, human. The note with it: vehicle-treated HepG2 cells, 1 h uptake. The procedure: as §1
as §2, with “Briefly, cells plated in 24-well plates (200,000/well) were treated with varying concentrations of SP-141 (1, 5, or 10 µM) or vehicle for 21 h and incubated with a fresh medium containing [^18F]1 (~18.5 kBq in 0.5 mL medium) for 1 h.” left out

“And” between values parts separate entries of the source, which are not always exact repeats. Equal values may be shown once. A value given as a limit tells only on which side of the number the result lay.

As to `[18F]CCOc1ccc2[nH]c3c(-c4cccc5ccccc45)nccc3c2c1` [[^18F]1], in data set [1], the “Percentage of intact [^18F]1” value is recorded as ~ 100%. The Kd in the data set with MCF-7 cells [2] worked out at 0.0781 µM. Moreover, the “[^18F]1 uptake” value in the data set with MCF-7 cells [3] (MCF-7 cells treated with SP-141 (1, 5 or 10 µM) for 21 h) is at most 18.5 ± 0.0 %/mg protein; in the data set with MCF-7 cells [3] (vehicle-treated control MCF-7 cells), 71.4 %/mg protein and 71.4 ± 0.0 %/mg protein. Moreover, the logD in data set [4] came to 2.35 ± 0.19. For the same compound, in the data set with HepG2 cells, the “[^18F]1 uptake, baseline” value was 67.5 %/mg protein and ~ 68 %/mg protein.

A word on the Kd: it is a measure of binding affinity in units of concentration.

The values are drawn from publication PMC8070256, “Feasibility of Developing Radiotracers for MDM2: Synthesis and Preliminary Evaluation of an ^18F-Labeled Analogue of the MDM2 Inhibitor SP-141” (Pharmaceuticals, 2021).
